Data reported in patent US20170165254A1, “TREATING FLAVIVIRUS INFECTIONS WITH AMODIAQUINE AND DERIVATIVES THEREOF” (GEORGETOWN UNIVERSITY, priority 2014, published 2017).
Counter-ions that a name gives are not always drawn. Like-named read-outs stand apart in the source and are kept apart here.

What was measured:
DENV2 replicon = test: microbe, parasite or virus in culture; format: cell-based, Dengue Virus 2 (DENV2); details: for inhibition at 50 µM: DENV2, BHK-21, read-out: % Replicon Inhibition (Means ± SEM) DENV2
WNV replicon = test: microbe, parasite or virus in culture; format: cell-based, West Nile virus (WNV); details: for EC50: read-out: WNV replicon EC50; for inhibition of WNV replicon replication (in words): FIG. 1B; for inhibition at 50 µM: read-out: % Replicon Inhibition (Means ± SEM) WNV
Vero cells = test: Cytotoxicity assay, Vero cells; details: read-out: WNV replicon CC50; Table 2; unit inferred
BHK-21 cells = test: Cytotoxicity assay, BHK-21 cells; details: read-out: DENV replicon CC50; Table 2; unit inferred
DENV2 [1] = test: Inhibition of DENV2 infectivity in BHK-21 cells, plaque assay of supernatants; format: cell-based, Dengue Virus 2 (DENV2); details: for EC90: read-out: EC90 for inhibition of DENV2 infectivity (plaque assay)
Procedure: BHK-21 cells were seeded into 12-well plates (10^5 cells/well) and incubated overnight at 37° C. Cells were infected with DENV2 at a multiplicity of infection (MOI) of 0.01 or 1 as indicated. After infection, cells were washed with PBS and incubated with 1.5 mL of MEM supplemented with 2% FBS, 100 I.U./mL penicillin/100 μg/mL streptomycin (referred to as maintenance medium). AQ, at indicated concentrations, was added and cells were incubated at 37° C. for various time points as indicated. DMSO (1%), as a no-compound control (100% infection), and mock-infected control using medium alone (0% infection) were included. Supernatants were collected from the time point experiments and the virus titers determined by plaque assay.
(§1) BHK-21 cells were seeded at ˜10^5 cells/well (12-well plate) or ˜5×10^4 cells/well (24-well plate) and then incubated at 37° C. until reaching 90% confluence. Cells were infected with the supernatants collected from experiments of AQ treatments. Cells were washed with PBS, and incubated with 1.5 mL of overlay medium (maintenance medium containing 1% methylcellulose). The plates were incubated for 3-4 days at 37° C. under 5% CO2. After plaques became visually apparent by microscopy, cells were fixed and stained with 11.1% formaldehyde, 4.75% isopropanol, and 1% crystal violet for 30 minutes. The number of plaque forming units (PFU) per mL was determined.
BHK-21 cells were seeded as described above. AQ, at indicated concentrations in 1% DMSO, was added to DENV2 (MOI of 0.01 or 1)-infected cells during adsorption and/or post-infection. Supernatants were collected at indicated time points post-infection for plaque assays.

DENV2 [2] = test: DENV2 intracellular and extracellular RNA levels by qPCR in BHK-21 cells; format: cell-based, Dengue Virus 2 (DENV2); details: AQ 5 μM, 72 hours, p<0.001 vs untreated
DENV2 [3] = test: Time-course analysis on DENV2 infectivity (indirect plaque assay); format: cell-based, Dengue Virus 2 (DENV2)
Procedure: as §1
BHK-21 cells were grown in 6-well plates (˜2.5×10^5 cells/well) and were infected with DENV2 at a MOI of 0.01 in the maintenance medium. Cells were washed with PBS and incubated with 3 mL of maintenance medium. AQ at indicated concentrations was added and cells were incubated at 37° C. Supernatants were sampled as indicated and stored at −70° C. for plaque assays.

DENV2 [4] = test: Direct plaque assay, AQ present only during adsorption (viral entry); format: cell-based, Dengue Virus 2 (DENV2)
DENV2 [5] = test: Order of addition assay; format: cell-based, Dengue Virus 2 (DENV2); details: AQ 5 μM added post-infection; 48 and 72 hours; MOI of 1
DENV2 [6] = test: Time of addition assay; format: cell-based, Dengue Virus 2 (DENV2)
Rluc enzyme = target: T1, Rluc enzyme (Renilla reniformis, UniProt P27652); format: biochemical; details: added to BHK-21/DENV2 replicon cell lysate
T1 sequence (P27652 1-311): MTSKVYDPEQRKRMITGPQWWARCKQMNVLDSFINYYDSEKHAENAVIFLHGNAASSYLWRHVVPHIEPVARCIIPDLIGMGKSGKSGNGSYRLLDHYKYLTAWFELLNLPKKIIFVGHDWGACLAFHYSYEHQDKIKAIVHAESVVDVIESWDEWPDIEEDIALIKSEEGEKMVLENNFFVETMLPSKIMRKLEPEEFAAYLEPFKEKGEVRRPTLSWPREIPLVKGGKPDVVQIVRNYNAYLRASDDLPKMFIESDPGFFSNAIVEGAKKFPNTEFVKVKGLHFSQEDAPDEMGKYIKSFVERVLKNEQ

[7] = 50 μM in 1% DMSO, Vero/WNV replicon cells

Row | Molecule | % Replicon Inhibition (Means ± SEM) DENV2 (DENV2 replicon) | inhibition of DENV2 replicon replication (in words) (DENV2 replicon) | EC50 (DENV2 replicon; read-out: DENV replicon EC50) | % Replicon Inhibition (Means ± SEM) WNV (WNV replicon; [7]) | EC50 (WNV replicon; Table 2, unit inferred) | inhibition of WNV replicon replication (in words) (WNV replicon; Vero/WNV replicon cells) | CC50 (Vero cells) | CC50 (BHK-21 cells) | inhibition at 50 µM (DENV2 replicon; Dengue virus) | inhibition at 50 µM (WNV replicon; West Nile virus, Vero) | further results
1 | C=CN(C)Cc1cc(Nc2ccnc3cc(Cl)ccc23)ccc1O [AQ derivative 6] | 98.5 ± 1.3% | strong inhibition | 12.5 ± 2.19 µM | 99.5 ± 0.1% | 6.29 ± 0.52 µM | strong inhibition | 18.2 ± 1.05 µM | 16.4 ± 0.46 µM |  |  | 
2 | C/C=C1\CN2CC[C@H]1C[C@H]2[C@H](O)c1ccnc2ccc(O)cc12 [apoquinine] | — (key: —: “-” refers to no inhibition) |  |  | 33.7 ± 2.9% |  |  |  |  |  |  | 
3 | COc1ccc(Nc2ccnc3cc(Cl)ccc23)cc1CN(CCCl)C(C)CCl (stereo not shown) [AQ derivative 7] | 93.0 ± 2.6% | strong inhibition | 19 ± 1.73 µM | 97.7 ± 1.1% | 14.8 ± 1.14 µM | strong inhibition | 34.8 ± 1.78 µM | 17.7 ± 1.96 µM |  |  | 
4 | CCN(CC)Cc1cc(Nc2c(C)cnc3cc(Cl)ccc23)ccc1O [AQ derivative 1] | 89.9 ± 10.6% | strong inhibition | 21.1 ± 1.22 µM | 97.9 ± 0.5% | 14.8 ± 0.48 µM | strong inhibition |  |  |  |  | 
5 | CCN(CC)CCCC(C)Nc1ccnc2cc(Cl)ccc12 (stereo not shown) [chloroquine (CQ), chloroquine] |  | did not inhibit DENV2 replicon replication |  |  |  |  |  |  | 54.8 ± 4.5% | 18.5 ± 2.8% | EC90 (DENV2 [1]; Dengue virus, DENV2, BHK-21, 72 h): 5.04 ± 0.72 µM
6 | C=C[C@H]1C[N@@]2CC[C@H]1C[C@H]2[C@H](O)c1ccnc2ccc(OC)cc12 [quinine, hydrobromide hydrate] |  |  |  |  |  |  |  |  | 2.8 ± 0.25% | 34.9 ± 6.7% | 
7 | CC(CCCN(CCCl)CCCl)Nc1ccnc2cc(Cl)ccc12.O=C(O)c1cc2ccccc2c(Cc2c(O)c(C(=O)O)cc3ccccc23)c1O [chloroquine mustard pamoate] | 47.5 ± 4.9% |  |  |  |  |  |  |  |  |  | % Replicon Inhibition (Means ± SEM) WNV (WNV replicon): 10.35 ± 4.1%
8 | chloroquine sulfate | 28.1 ± 3.6% |  |  |  |  |  |  |  |  |  | % Replicon Inhibition (Means ± SEM) WNV (WNV replicon): — (key: —: “-” refers to no inhibition)
9 | COc1cc(NC(C)CCCN)c2ncccc2c1 (stereo not shown) [primaquine] |  |  |  |  |  |  |  |  | < 0% | < 0% | 
10 | CCN(CC)Cc1cc(Nc2c(C3CCCC3)c(C)nc3cc(Cl)ccc23)ccc1O [AQ derivative 4] | 99.99 ± 0.0% | strong inhibition | 15.4 ± 1.31 µM | 99.8 ± 0.01% | 3.31 ± 0.73 µM | strong inhibition |  |  |  |  | 
11 | Oc1ccc(Nc2ccnc3cc(Cl)ccc23)cc1 [AQ derivative 8] | 3.9 ± 0.3% | failed to inhibit replicon replication | > 100 µM | 57.2 ± 5.1% | > 100 µM |  | > 100 µM | > 100 µM |  |  | EC50 (DENV2 replicon; read-out: EC50 values, BHK-21/DENV2 replicon cells): ~100 µM; EC90 (DENV2 [1]; MOI of 1, supernatants at 72 hours, BHK-21 cells): 31.2 ± 5.15 µM
12 | CCN(CC)Cc1cc(Nc2ccnc3cc(Cl)ccc23)ccc1O [AQ, 4-[(7-chloroquinolin-4-yl)amino]-2(diethylaminomethyl)phenol] | 76.3 ± 1.6% |  |  |  |  |  | 24.4 ± 2.49 µM | 80 ± 6.27 µM | 76.3 ± 1.6% | 96.3 ± 0.39% | EC50 (DENV2 replicon; Dengue virus, DENV2, BHK-21, read-out: DENV replicon EC50): 10.8 ± 1.43 µM; EC50 (DENV2 replicon; Dengue virus, DENV2, BHK-21, read-out: EC50 in BHK-21/DENV2 replicon cells): 7.41 ± 1.09 µM; EC50 (WNV replicon; West Nile virus, Vero): 14.6 ± 2.21 µM; virus infectivity (PFU/mL of supernatant) by plaque assay (DENV2 [1]; AQ 5 μM, 72 hours, BHK-21 cells): significant reduction; EC90 (DENV2 [1]; Dengue virus, DENV2, BHK-21, 96 h): 2.71 ± 0.85 µM; EC50 (DENV2 [1]; Dengue virus, DENV2, MOI of 1, supernatants at 72 hours, BHK-21 cells, read-out: EC50 for inhibition of extracellular release of DENV2 (plaque assay)): 1080 ± 90 nM; EC90 (DENV2 [1]; Dengue virus, DENV2, MOI of 1, supernatants at 72 hours, BHK-21 cells): 2.69 ± 0.4 µM; DENV2 replication, intracellular and extracellular RNA levels (qRT-PCR) (DENV2 [2]): effectively inhibited DENV2 replication; inhibition of DENV2 infectivity, indirect plaque assay (DENV2 [3]; AQ 5 μM present during and up to 96 hours post-infection): significant inhibition; plaque formation reduced (DENV2 [3]; AQ 5 μM, MOI of 0.01, added during adsorption and post-infection): ≥ 90%; virus titers (PFU/mL) over time course (DENV2 [3]; AQ 1, 5, 10, 25 μM, MOI of 0.01, p<0.05): reduced significantly in a dose-dependent manner; plaque titer versus DMSO control, direct plaque assay (DENV2 [4]; AQ 5 μM only during adsorption, MOI of 0.01): not significantly different; virus titer reduced, direct plaque assay (DENV2 [4]; AQ 10 μM during adsorption): 69.23±1.57%; virus titer reduced, direct plaque assay (DENV2 [4]; AQ 25 μM during adsorption): 82.70±2.48%; reduction of plaque titer from DMSO control (DENV2 [5]): ≥ 90%; plaque reduction (DENV2 [6]; AQ 5 μM added as late as 15 hours post-infection, supernatants at 72 hours, MOI of 1): ≥ 90%; inhibitory effect when added late (DENV2 [6]; AQ 5 μM added at 21 hours post-infection and later): lost its inhibitory effect; inhibition of DENV2 infection when added early (DENV2 [6]; AQ 5 μM added up to 12 hours post-infection, supernatants at 48 hours): inhibited DENV2 infection steadily; interference with Rluc enzyme activity (Rluc enzyme): did not interfere
13 | CC[N+](C)(CC)Cc1cc(Nc2ccnc3cc(Cl)ccc23)ccc1O [AQ derivative 2] | 69.9 ± 3.4% |  | 29.7 ± 2.26 µM | 50.6 ± 4.4% | 30.2 ± 6.05 µM |  |  |  |  |  | 
